Results as given in PubChem BioAssay AID651809 (Broad Institute, 2012).
The source made the active and inactive calls. How the calls were made is not given here.

Assay: Cholera quorum inducers, V. cholerae BH1578 lux reporter, luminescence, confirmatory dose response (AID 651809)
Details: V. cholerae BH1578 lux reporter, luminescence, 6 h; at 35 µM (top of the series)

| SMILES | activation |
| --- | --- |
| CC(C)c1ccc(CNc2nnn(C)n2)cc1 | 0.033% (inactive) |
| O=C(O)Cc1ccc(-c2ccccc2)cc1 | 0.008% (inactive) |
| O=C(Cc1ccc(-c2ccccc2)cc1)NC1CCNCC1 | 0.085% (inactive) |
| CCc1ccc(C(=O)Nc2nnnn2CC)cc1 | -0.042% (inactive) |
| CN1CCC(NC(=O)Cc2ccc(-c3ccccc3)cc2)CC1 | 3.34% (inactive) |
| CC(C)n1nnnc1NCc1ccc(N2CCCC2)cc1 | 133% (inactive) |
| O=C(Cc1ccccc1-c1ccccc1)NC1CCCC1 | -0.016% (inactive) |
| O=C(Cc1ccc(-c2ccccc2)cc1)N1CCCCC1 | -0.022% (inactive) |
| O=C(Cc1ccc(-c2cccnc2)cc1)NC1CCCC1 | 15.8% (inactive) |
| O=C(Cc1cccc(Cl)c1)NC1CCCC1 | 0.144% (inactive) |
| CN(Cc1ccc(N2CCCC2)cc1)c1nnn(C)n1 | -0.005% (inactive) |
| N#Cc1ccc(CC(=O)NC2CCCC2)cc1 | -0.056% (inactive) |
| O=C(Cc1ccccc1I)NC1CCCC1 | 0.012% (inactive) |
| COc1cccc(CC(=O)NC2CCCC2)c1 | -0.014% (inactive) |
| CN(C(=O)Cc1ccc(-c2ccccc2)cc1)C1CCCC1 | 0.648% (inactive) |
| CN(Cc1ccc(N2CCCC2)cc1)c1nnnn1C | 14.6% (inactive) |
| CC(C)n1nnc(NCc2ccc(N3CCCC3)cc2)n1 | -0.029% (inactive) |
| O=C(Cc1ccc(-c2ccccc2)cc1)N1CCCC1 | 0.018% (inactive) |
| CCn1nnnc1NCc1cccn1C | -0.015% (inactive) |
| O=C(Cc1cccc(OC(F)(F)F)c1)NC1CCCC1 | 1.1% (inactive) |
| CCn1nnnc1NCc1ccccc1 | 0.115% (inactive) |
| Cn1nnc(NCc2ccccc2)n1 | -0.02% (inactive) |
| O=C(Cc1ccc(-c2ccccc2)cc1)N1CCC(F)(F)CC1 | -0.007% (inactive) |
| CS(=O)(=O)c1cccc(CC(=O)NC2CCCC2)c1 | 0.049% (inactive) |

| SMILES | activation |
| --- | --- |
| O=C(Cc1ccc(-c2ccccc2)cc1)N1CCC1 | 1.77% (inactive) |
| O=C(Cc1ccccc1Cl)NC1CCCC1 | 0.002% (inactive) |
| CCn1nnnc1NC(=O)c1ccc(N2CCCC2)cc1 | 0.669% (inactive) |
| O=C(Cc1ccc(-c2ccccc2)cc1)NCc1ccccc1 | 0.004% (inactive) |
| O=C(Cc1ccc(-c2ccccc2)cc1)N1CC(F)(F)C1 | 1.11% (inactive) |
| CCn1nnc(NCc2ccc(C(F)(F)F)cc2)n1 | -0.033% (inactive) |
| c1ccc(CNc2nn[nH]n2)cc1 | 0.04% (inactive) |
| CS(=O)(=O)c1ccc(CC(=O)NC2CCCC2)cc1 | -0.009% (inactive) |
| Cn1nnnc1NCc1ccc(C(F)(F)F)cc1 | 0.204% (inactive) |
| CN(C)C(=O)Cc1ccc(-c2ccccc2)cc1 | 0.185% (inactive) |
| O=C(Cc1ccc(OC(F)(F)F)cc1)NC1CCCC1 | 1.25% (inactive) |
| CCn1nnc(NCc2ccccc2)n1 | 0.35% (inactive) |
| CNC(=O)Cc1ccc(-c2ccccc2)cc1 | 0.578% (inactive) |
| O=C(Cc1ccc(C(F)(F)F)cc1)NC1CCCC1 | 0.008% (inactive) |
| c1ccc(-c2ccc(CCNC3CCCC3)cc2)cc1 | -0.024% (inactive) |
| Cn1nnc(NCc2ccc(N3CCCC3)cc2)n1 | 0.034% (inactive) |
| O=C(CCc1ccc(-c2ccccc2)cc1)NC1CCCC1 | -0.057% (inactive) |
| O=C(Cc1ccc(-c2ccccc2)cc1)NCC1CCCC1 | 0.056% (inactive) |
| Cc1cccc(CC(=O)NC2CCCC2)c1 | 0.44% (inactive) |
| Cn1nnc(NCc2ccc(C(F)(F)F)cc2)n1 | 1.48% (inactive) |
| O=C(Cc1ccccc1F)NC1CCCC1 | 0.011% (inactive) |
| O=C(Cc1cccc(F)c1)NC1CCCC1 | 0.009% (inactive) |
| O=C(Cc1ccccc1C(F)(F)F)NC1CCCC1 | 0.015% (inactive) |
